Results published in the PolyMetriX glass transition set.
± gives the standard deviation of the reports.

| Structure (SMILES) | glass transition temperature |
| --- | --- |
| *c1ccc(Oc2ccc(NC(=O)c3ccc4c(c3)C(=O)N(c3ccc(Cc5ccc(N6C(=O)c7ccc(C(=O)Nc8ccc(Oc9ccc(C%10(*)NC(=O)c%11ccccc%11%10)cc9)cc8)cc7C6=O)cc5)cc3)C4=O)cc2)cc1 (repeat unit) | 302.00 °C |
| *CC(C)(C)O* (repeat unit) | 40.50 °C |
| *CN1C(=O)c2ccc(C(c3ccc4c(c3)C(=O)N(Cc3nc5ccc(Cc6ccc7nc(*)oc(=O)c7c6)cc5c(=O)o3)C4=O)(C(F)(F)F)C(F)(F)F)cc2C1=O (repeat unit) | 218.00 °C |
| *Oc1ccc(S(=O)(=O)c2ccc(Oc3ccc(C(C)(C)c4ccc(*)c(Cl)c4)cc3Cl)cc2)cc1 (repeat unit) | 205.00 °C |
| *c1ccc(Oc2cccc(Oc3ccc(N4C(=O)c5cccc(Oc6ccc(Sc7ccc(Oc8cccc9c8C(=O)N(*)C9=O)cc7)cc6)c5C4=O)cc3)c2)cc1 (repeat unit) | 202.00 °C |
| *C(=O)c1ccc2c(c1)C(=O)N(c1ccc(-c3cc(-c4ccc(OCCCC#N)cc4)cc(-c4ccc(N5C(=O)c6ccc(*)cc6C5=O)cc4)n3)cc1)C2=O (repeat unit) | 342.00 °C |
| *CC(*)C(=O)c1ccc(CC)cc1 (repeat unit) | 49.2 °C |
| *OC(COC(=O)NCCCCCCNC(*)=O)c1ccco1 (repeat unit) | 17.00 °C |
| *CCCC(C)(C)CNC(=O)CCCCCC(=O)N* (repeat unit) | 70.50 °C |
| *CC(CO*)(CSC(C)C)CSC(C)C (repeat unit) | -9.00 °C |
| *c1ccc(S(=O)(=O)c2ccc(NC(=O)c3cccc(C(=O)Nc4ccc(S(=O)(=O)c5ccc(-n6c(=O)c7cc8c(=O)n(*)c(=O)c8cc7c6=O)cc5)cc4)c3)cc2)cc1 (repeat unit) | 286.00 °C |
| *OC(=O)OC1COC2C(*)COC12 (repeat unit) | 140.00 °C |
| *Oc1ccc(P(C)(=O)c2ccc(Oc3ccc(C(c4ccc(*)cc4)(C(F)(F)F)C(F)(F)F)cc3)cc2)cc1 (repeat unit) | 208.00 °C |
| *C(=O)OCCCSCCCCSCCCOC(=O)c1ccc(N2C(=O)c3ccc(*)cc3C2=O)cc1 (repeat unit) | 39.00 °C |
| *OC(COC(=O)c1ccc(C(*)=O)cc1)COc1ccc(/N=N/c2ccc(C#N)cc2)cc1 (repeat unit) | 122.00 °C |
| *Oc1ccc(CC(NC(=O)Cc2ccc(OC(=O)COCC(*)=O)cc2)C(=O)OCCCCCC)cc1 (repeat unit) | 46.00 °C |
| *c1ccc(C(c2ccc(N3C(=O)c4ccc(Oc5cccc6c(Oc7ccc8c(c7)C(=O)N(*)C8=O)cccc56)cc4C3=O)cc2)(C(F)(F)F)C(F)(F)F)cc1 (repeat unit) | 276.00 °C |

| Structure (SMILES) | glass transition temperature |
| --- | --- |
| *C(=O)c1ccc2c(c1)C(=O)N(c1cc(C(c3ccc(O)c(N4C(=O)c5ccc(*)cc5C4=O)c3)(C(F)(F)F)C(F)(F)F)ccc1O)C2=O (repeat unit) | 315.00 °C |
| *c1ccc(-c2nc3cc(-c4ccc5nc(-c6ccccc6)c(*)nc5c4)ccc3nc2-c2ccccc2)cc1 (repeat unit) [poly(phenylquinoxaline)] | 367.43 ± 3.4 °C |
| *Cc1ccc(CSSSS*)cc1 (repeat unit) | 3.00 °C |
| *CCOC(=O)C1C2C=CC(C2)C1C(=O)O* (repeat unit) | 0.00 °C |
| *C(=O)Nc1ccc(Oc2ccc(NC(=O)c3ccc4c(c3)C(=O)N(c3ccc(-c5sc(-c6ccc(N7C(=O)c8ccc(*)cc8C7=O)cc6)c(-c6ccccc6)c5-c5ccccc5)cc3)C4=O)cc2)cc1 (repeat unit) | 320.00 °C |
| *c1cccc(N2C(=O)c3ccc(C(c4ccc5c(c4)C(=O)N(c4cccc(-n6c(=O)c7cc8c(=O)n(*)c(=O)c8cc7c6=O)c4)C5=O)(C(F)(F)F)C(F)(F)F)cc3C2=O)c1 (repeat unit) | 338.00 °C |
| *CC(*)C(=O)OCCOCC (repeat unit) | -50.00 °C |
| *c1ccc(Cc2ccc(N3C(=O)C(C)C(SCCOCCSC4C(=O)N(c5ccc(Cc6ccc(N7C(=O)CC(C)(SCCOCCSC8(C)CC(=O)N(*)C8=O)C7=O)cc6)cc5)C(=O)C4C)C3=O)cc2)cc1 (repeat unit) | 105.00 °C |
| *CC(*)(C)C(=O)OCCCn1c2ccccc2c2ccccc21 (repeat unit) | 113.00 °C |
| *c1c(C)cc(C(c2cc(C(F)(F)F)cc(C(F)(F)F)c2)c2cc(C)c(N3C(=O)c4ccc(-c5ccc6c(c5)C(=O)N(*)C6=O)cc4C3=O)c(C)c2)cc1C (repeat unit) | 317.40 °C |
| *c1ccc(C(=O)c2ccc(-n3nc(-c4ccc(Sc5ccc(-c6nn(*)c(=O)c7ccccc67)cc5)cc4)c4ccccc4c3=O)cc2)cc1 (repeat unit) | 281.00 °C |
| *Oc1cc(OC(=O)c2ccc(C)cc2)c(OC(=O)CCCCCCCCCCCCCCC(*)=O)cc1OC(=O)c1ccc(C)cc1 (repeat unit) | 27.00 °C |
| *Oc1ccc(C(=O)NNC(=O)c2cccc(C(=O)NNC(=O)c3ccc(OC(=O)c4cccc(C(*)=O)c4)cc3)c2)cc1 (repeat unit) | 180.00 °C |
| *CC(*)C(=O)Oc1ccccc1C (repeat unit) | 51.50 °C |
| *CCCCOc1ccc(C(=O)Nc2cccc(P(=O)(c3ccccc3)c3cccc(NC(=O)c4ccc(O*)cc4)c3)c2)cc1 (repeat unit) | 191.00 °C |
| *OC(F)(F)C(F)(F)C(*)(F)F (repeat unit) | -109.00 °C |

Other lines, results leading:

| glass transition temperature | Structure (SMILES) |
| --- | --- |
| 284.00 °C | *c1ccc(C(=O)Nc2ccc(-c3ccccc3NC(=O)c3ccc(S(*)(=O)=O)cc3)cc2)cc1 (repeat unit) |
| 121.00 °C | *CC(O)COc1ccc(C(C)(C)c2ccc(OCC(O)COc3ccccc3C(=O)Nc3ccc(O*)cc3)cc2)cc1 (repeat unit) |
| 243.00 °C | *c1ccc(Oc2ccc(-n3nccc3-c3ccc(-c4ccnn4*)cc3)cc2)cc1 (repeat unit) |
| 38.00 °C | *Oc1ccc(C(=O)OCCCCOC(=O)c2ccc(*)cc2)cc1 (repeat unit) |
| 230.00 °C | *C1C(=O)N(c2ccccc2C(=O)OCC)C(=O)C1* (repeat unit) |
| 228.00 °C | *c1ccc(Oc2ccc(C(C)(C)c3ccc(Oc4ccc(-c5nc(*)nc(-c6ccccc6)n5)cc4)cc3)cc2)cc1 (repeat unit) |
| 260.00 °C | *c1ccc(Oc2ccc(-n3nc(-c4ccccc4)cc3-c3ccc(-c4cc(-c5ccccc5)nn4*)cc3)cc2)cc1 (repeat unit) |
| 95.00 °C | *CC(C)(CCC)COC(=O)c1ccc(-c2ccc(C(=O)O*)cc2)cc1 (repeat unit) |
| 140.50 °C | *Oc1ccc(C(C)(C)c2ccc(OC(*)=S)cc2)cc1 (repeat unit) |
| 51.00 °C | *CC(*)(C)C(=O)OCCCCOc1ccc(OC(=O)c2ccc(OCCCC)cc2)cc1 (repeat unit) |
| 150.00 °C | *c1ccc(Oc2ccc(-c3csc(/N=C/c4ccc(OCCCCCCCCOc5ccc(/C=N/c6nc(*)cs6)cc5)cc4)n3)cc2)cc1 (repeat unit) |
| 110.00 °C | *c1ccc(-c2cc(-c3ccc(OCC(CC)CCCC)cc3)cc(-c3ccc(-c4ccc5c(c4)C(CCCCCC)(CCCCCC)c4cc(*)ccc4-5)cc3)c2-c2ccc(OCC(CC)CCCC)cc2)cc1 (repeat unit) |
| 123.00 °C | *COc1ccc(C(c2ccc(O*)cc2)(C(F)(F)F)C(F)(F)F)cc1 (repeat unit) |
| -57 ± 6.6 °C | *CCCCCCCCCCOC(=O)CCCCC(=O)O* (repeat unit) [Poly(decamethylene adipate) ] |
| -73.00 °C | *CCCCOC(=O)CCSCCCCCCSCCC(=O)O* (repeat unit) |
| 10.50 °C | *CCCCCCCCCCOC(=O)c1ccc(C(=O)O*)cc1 (repeat unit) |
| 200.00 °C | *Nc1cc(NC(=O)c2ccc(C(*)=O)cc2)cc(C(=O)Oc2ccccc2)c1 (repeat unit) |

| glass transition temperature | Structure (SMILES) |
| --- | --- |
| 15.40 °C | *CCCCCOc1ccc(CCc2ccc(O*)cc2C)cc1 (repeat unit) |
| 230.00 °C | *Oc1ccc(C(c2ccc(OC(*)=O)cc2)C(Cl)(Cl)Cl)cc1 (repeat unit) |
| 183.00 °C | */C=C/c1ccc(N(C)CCOC(=O)Nc2ccc(C)c(NC(=O)OCCN(C)c3ccc(/C=C/C4=CC(=C(C#N)C#N)C=C(*)O4)s3)c2)s1 (repeat unit) |
| 181.00 °C | *CC(*)C(=O)OCc1c(Br)c(Br)c(Br)c(Br)c1Br (repeat unit) |
| 44.00 °C | *CCCCCCCOC(=O)c1ccc(-c2ccc(C(=O)O*)cc2)cc1 (repeat unit) |
| 30.00 °C | *CC(*)C(=O)OCCCCCOC(=O)c1ccc(OC(=O)c2ccc(C#N)cc2)cc1 (repeat unit) |
| 94.00 °C | *CC(C)(C)COC(=O)Nc1ccc(Cc2ccc(NC(=O)O*)cc2)cc1 (repeat unit) |
| 382.00 °C | *c1ccc(Oc2ccc(-c3cnc4cc(Oc5ccc6nc(*)cnc6c5)ccc4n3)cc2)cc1 (repeat unit) |
| 135.00 °C | *CCCCC(C)CCn1c(=O)c2cc3c(=O)n(*)c(=O)c3cc2c1=O (repeat unit) |
| 198.00 °C | */C(C#N)=C/c1cc(OCCCCCCCCCC)c(/C=C(\C#N)c2cc(OCCCCCCCCCC)c(*)cc2OC)cc1OC (repeat unit) |
| -69.00 °C | *O[Si](*)(C)CCCCCCCCCCC(=O)OCCC(F)(F)C(F)(F)C(F)(F)C(F)(F)C(F)(F)C(F)(F)F (repeat unit) |
| 83.50 °C | *CCOCCOCCOc1ccc(/C=C/c2ccc(/C=C/c3ccc(O*)c4ccccc34)cc2)c2ccccc12 (repeat unit) |
| 63.00 °C | *CCCC(C)(C)CNC(=O)CCCCCCCC(=O)N* (repeat unit) |
| 325.00 °C | *C(=O)c1ccc2nc(-c3ccc(-c4nc5ccc(*)cc5nc4-c4ccccc4)cc3)c(-c3ccccc3)nc2c1 (repeat unit) |
| 23.00 °C | *CC(*)(C)C(=O)OCCCCC(F)(F)C(F)(F)C(F)(F)C(F)(F)F (repeat unit) |
| 302.00 °C | *C(=O)Nc1cccc(NC(=O)c2ccc3[nH]c(-c4cccc(-c5nc6cc(*)ccc6[nH]5)c4)nc3c2)n1 (repeat unit) |
